Data set [1] deals with SW480. As to the kind of experiment: Antiproliferative activity against human SW480 cells incubated for 48 hrs by CCK-8 assay. The class given is functional, cell-based. The note with it: SW480, 48 h. For orientation: Tetrazolium assays rely on reduction of a dye to a coloured formazan, in cell work by metabolically active cells.
Data set [2] relates to HepG2. As to the kind of experiment: Antiproliferative activity against human HepG2 cells incubated for 48 hrs by CCK-8 assay. Format: functional, cell-based. The note with it: HepG2, 48 h.
Data set [3] can be described thus: Antiproliferative activity against human HEK293T cells incubated for 48 hrs by CCK-8 assay. Format: toxicity, cell-based, HEK-293T.
Data set [4] concerns MDA-MB-231. The data set can be described thus: Antiproliferative activity against human MDA-MB-231 cells incubated for 48 hrs by CCK-8 assay. Format: functional, cell-based. The note with it: MDA-MB-231, 48 h.
In data set [5] the test system is HeLa. As to the kind of experiment: Antiproliferative activity against human HeLa cells incubated for 48 hrs by CCK-8 assay. Format: functional, cell-based.
In data set [6] the test system is HCT-116. The data set can be described thus: Antiproliferative activity against human HCT-116 cells incubated for 48 hrs by CCK-8 assay. Format: functional, cell-based. The note with it: HCT-116, 48 h.

Broadly, the IC50 is the concentration that gives 50% inhibition. A high value points to lower potency. For `COc1cc(-c2nc(N)ncc2-c2cc3ccccc3s2)cc(OC)c1OC`, the IC50 in data set [1] was found to be 5.99 µM; in data set [2] it was 0.25 µM; in data set [4], 14.5 µM; in data set [5], 17.9 µM; in data set [6] it was 4.22 µM. In addition, in data set [3], the half-maximal inhibitory concentration (IC50) at 48 h was > 80 µM.
As to `COc1ccc(-n2nccc2-c2cc(OC)c(OC)c(OC)c2)cn1`, the IC50 in data set [6] was > 64 µM.
As to `COc1cc(-c2nc(N)ncc2-c2ccc(C)cc2)cc(OC)c1OC`, the IC50 is 39.7 µM in data set [1]; 45.8 µM in data set [2]; > 64 µM in data set [4]; 25.2 µM in data set [5]; > 64 µM in data set [6]. In data set [3], the IC50 at 48 h is > 80 µM.
Regarding `COc1ccc(-n2nccc2-c2cc(OC)c(OC)c(OC)c2)cc1`, the IC50 in data set [6] was > 64 µM.
On the same count and under the same terms, to `COc1cc(-c2ccnn2-c2cccc3ccccc23)cc(OC)c1OC` belongs > 64 µM.
Turning to `CCn1c2ccccc2c2cc(-c3cnc(N)nc3-c3cc(OC)c(OC)c(OC)c3)ccc21`, the IC50 is 4.32 µM in data set [1]; 0.57 µM in data set [2]; 4.69 µM in data set [4]; 11.2 µM in data set [5]; 3.04 µM in data set [6]. The IC50 at 48 h in data set [3] was > 80 µM.
On to `COc1cc(-c2ccnn2-c2ccc(C)cc2)cc(OC)c1OC`, for which the IC50 is 37.9 µM in data set [1]; 10.3 µM in data set [2]; 7.29 µM in data set [4]; 46.6 µM in data set [5]; 17 µM in data set [6]. Moreover, in data set [3], the 50% inhibitory concentration (IC50) at 48 h is > 80 µM.
In the case of `COc1cc(-c2ccnn2-c2ccc([N+](=O)[O-])cc2)cc(OC)c1OC`, in data set [6], the IC50 was > 64 µM.
For the molecule `COc1ccc(-c2cnc(N)nc2-c2cc(OC)c(OC)c(OC)c2)cc1`, the IC50 in data set [1] was > 64 µM; in data set [2], 29.9 µM; in data set [4] it was 22.4 µM; in data set [5], 60.5 µM; in data set [6], 12.7 µM. Also, the half-inhibitory concentration (IC50) at 48 h in data set [3] is > 80 µM.
As for `COc1cc(-c2nc(N)ncc2-c2cn(S(=O)(=O)c3ccccc3)c3ccccc23)cc(OC)c1OC`, the 50% inhibitory concentration (IC50) in data set [6] is > 64 µM.
For the molecule `COc1cc(-c2ccnn2-c2ccc(I)cc2)cc(OC)c1OC`, the half-inhibitory concentration (IC50) came out at 28.2 µM in data set [1]; 5.64 µM in data set [2]; 8.21 µM in data set [4]; 23.4 µM in data set [5]; 14.7 µM in data set [6]. The IC50 at 48 h in data set [3] was > 80 µM.
`COc1ccc(-c2cnc(NC(C)=O)nc2-c2cc(OC)c(OC)c(OC)c2)cc1N`: the IC50 in data set [1], in data set [2], in data set [4], in data set [5] and in data set [6] was > 64 µM throughout. Moreover, the IC50 at 48 h in data set [3] was > 80 µM.
For `COc1cc(-c2ccnn2-c2cccnc2)cc(OC)c1OC`, the IC50 in data set [6] was > 64 µM.
In the case of `COc1cc(-c2ccnn2-c2ccc(O)cc2)cc(OC)c1OC`, the IC50 in data set [6] is > 64 µM.
As to `COc1cc(-c2ccnn2-c2ccc(S(N)(=O)=O)cc2)cc(OC)c1OC`, in data set [6], the IC50 is > 64 µM.
Consider `COc1cc(-c2nc(N)ncc2-c2ccc(F)cc2)cc(OC)c1OC`, for which, in data set [6], the IC50 is > 64 µM.
For `COc1cc(-c2nc(N)ncc2-c2ccc(C)c(C)c2)cc(OC)c1OC`, the 50% inhibitory concentration (IC50) in data set [1] is > 64 µM; in data set [2], 15.2 µM; in data set [4], > 64 µM; in data set [5], > 64 µM; in data set [6], 23.9 µM. The IC50 at 48 h in data set [3] is > 80 µM.
As for `COc1cc(-c2ccnn2-c2ccc(S(C)(=O)=O)cc2)cc(OC)c1OC`, the concentration for half-maximal inhibition (IC50) in data set [6] was > 64 µM.
Consider `COc1cc(-c2nc(N)ncc2-c2c[nH]c3ccccc23)cc(OC)c1OC`, for which, in data set [6], the IC50 is > 64 µM.
Still for that read-out and setting: to `COc1cc(-c2nc(N)ncc2-c2cnc(N)nc2)cc(OC)c1OC` belongs > 64 µM; to `COC(=O)c1ccc(-c2cnc(N)nc2-c2cc(OC)c(OC)c(OC)c2)cc1`, > 64 µM.
Take `COc1cc(-c2cnc(N)nc2-c2cc(OC)c(OC)c(OC)c2)ccc1O`: the half-maximal inhibitory concentration (IC50) in data set [6] was > 64 µM.
Same read-out and setting: the result for `COc1cc(-c2ccnn2-c2ccc(Cl)cc2)cc(OC)c1OC` reads > 64 µM.
In the case of `COc1ccc(-c2cnc(N)nc2-c2cc(OC)c(OC)c(OC)c2)cc1F`, the half-maximal inhibitory concentration (IC50) in data set [1] was 58.4 µM; in data set [2] it was 34.1 µM; in data set [4] it was 10.6 µM; in data set [5], 32.3 µM; in data set [6], 13 µM. Moreover, in data set [3], the half-maximal inhibitory concentration (IC50) at 48 h is > 80 µM.
Regarding `COc1cc(-c2nc(N)ncc2-c2ccc3c(ccn3C)c2)cc(OC)c1OC`, the IC50 was 5.05 µM in data set [1]; 30.8 µM in data set [2]; > 64 µM in data set [4]; 7.54 µM in data set [5]; 14.7 µM in data set [6]. For the same molecule, the IC50 at 48 h in data set [3] is > 80 µM.
As for `COc1cc(-c2nc(N)ncc2-c2ccc(N)cc2)cc(OC)c1OC`, 38.5 µM corresponded to half-maximal inhibition in data set [6] (IC50).
Take `COc1cc(-c2nc(N)ncc2-c2ccc3c(cnn3C)c2)cc(OC)c1OC`: the concentration for half-maximal inhibition (IC50) in data set [6] is > 64 µM.
On the same count and under the same terms, to `COc1cc(-c2nc(N)ncc2-c2ccc(CO)cc2)cc(OC)c1OC` belongs > 64 µM.
Still for that read-out and setting: the result for `CCOc1cc(-c2cnc(N)nc2-c2cc(OC)c(OC)c(OC)c2)ccc1Cl` reads > 64 µM; that for `COc1cc(-c2nc(N)ncc2-c2ccccc2)cc(OC)c1OC`, > 64 µM.
Still for that read-out and setting: to `COc1cc(-c2nc(N)ncc2-c2ccc(Cl)cc2)cc(OC)c1OC` belongs > 64 µM; to `COc1ccc(-c2cnc(N)nc2-c2cc(OC)c(OC)c(OC)c2)cc1C=O`, > 64 µM.
Turning to `COc1cc(-c2nc(N)ncc2-c2ccc3c(c2)OCCO3)cc(OC)c1OC`, the IC50 in data set [6] is > 64 µM.
On the same count and under the same terms, the result for `COc1cc(-c2nc(N)ncc2-c2cccc(C)c2)cc(OC)c1OC` reads > 64 µM; that for `COc1cc(-c2ccnn2-c2ccccc2[N+](=O)[O-])cc(OC)c1OC`, > 64 µM.
Same read-out and setting: to `COc1cc(-c2ccnn2-c2ccc(OCc3ccccc3)cc2)cc(OC)c1OC` belongs > 64 µM; to `COc1cc(-c2ccnn2-c2ccc(CO)cc2)cc(OC)c1OC`, > 64 µM; to `COC(=O)c1ccc(-n2nccc2-c2cc(OC)c(OC)c(OC)c2)cc1`, > 64 µM.
In the case of `COc1cc(-c2ccnn2-c2nccs2)cc(OC)c1OC`, the IC50 in data set [6] was > 64 µM.
The same measure, in the same setting: to `COc1cc(-c2nc(N)ncc2-c2ccccc2C)cc(OC)c1OC` belongs > 64 µM; to `COc1cc(-c2cnc(N)nc2-c2cc(OC)c(OC)c(OC)c2)cc(OC)c1OC`, > 64 µM.
Still for that read-out and setting: the result for `COc1ccc(-c2cnc(N)nc2-c2cc(OC)c(OC)c(OC)c2)cc1Cl` reads > 64 µM.
As for `COc1cc(-c2nc(N)ncc2-c2ccc(S(C)(=O)=O)cc2)cc(OC)c1OC`, the IC50 in data set [6] is > 64 µM.
On to `COc1ccc(-c2cnc(N)nc2-c2cc(OC)c(OC)c(OC)c2)cc1N`, for which the IC50 in data set [1] was 52.2 µM; in data set [2], 17 µM; in data set [4], 11.6 µM; in data set [5] it was > 64 µM; in data set [6], 7.45 µM. Moreover, the 50% inhibitory concentration (IC50) at 48 h in data set [3] is > 80 µM.
Regarding `COc1cc(-c2ccnn2-c2ccc(C#N)cc2)cc(OC)c1OC`, the IC50 in data set [6] was > 64 µM.
As for `COc1ccc(-c2cnc(N)nc2-c2cc(OC)c(OC)c(OC)c2)cc1[N+](=O)[O-]`, the IC50 in data set [6] is > 64 µM.
With `COCc1ccc(-c2cnc(N)nc2-c2cc(OC)c(OC)c(OC)c2)cc1`, the IC50 is > 64 µM in data set [1]; 2.04 µM in data set [2]; 14 µM in data set [4]; > 64 µM in data set [5]; 16.7 µM in data set [6]. In data set [3], the IC50 at 48 h was > 80 µM.
Regarding `COc1cccc(-c2cnc(N)nc2-c2cc(OC)c(OC)c(OC)c2)c1`, the concentration for half-maximal inhibition (IC50) in data set [6] was > 64 µM.
With `COc1cc(-c2ccnn2-c2ccc(Br)cc2)cc(OC)c1OC`, in data set [6], the IC50 was > 64 µM.
On the same count and under the same terms, the result for `CNS(=O)(=O)Cc1ccc(-n2nccc2-c2cc(OC)c(OC)c(OC)c2)cc1` reads > 64 µM; that for `COc1cc(-c2ccnn2-c2ccc(F)cc2)cc(OC)c1OC`, > 64 µM.
As to `COc1cc(-c2ccnn2-c2ccc(C(=O)O)cc2)cc(OC)c1OC`, in data set [6], the half-inhibitory concentration (IC50) is > 64 µM.
The same measure, in the same setting: to `COc1cc(-c2ccnn2-c2cccc([N+](=O)[O-])c2)cc(OC)c1OC` belongs > 64 µM.
In the case of `COc1cc(-c2nc(N)ncc2-c2ccc3cc[nH]c3c2)cc(OC)c1OC`, the half-inhibitory concentration (IC50) in data set [1] was found to be 36.8 µM; in data set [2], 1.37 µM; in data set [4] it was 27.1 µM; in data set [5], 19.3 µM; in data set [6], 3.87 µM. The IC50 at 48 h in data set [3] was > 80 µM.
`COc1cc(-c2nc(N)ncc2-c2ccc(SC)cc2)cc(OC)c1OC`: the IC50 in data set [1] is > 64 µM; in data set [2] it was 52.1 µM; in data set [4] it was > 64 µM; in data set [5], 37.8 µM; in data set [6], 11.8 µM. In addition, the concentration for half-maximal inhibition (IC50) at 48 h in data set [3] is > 80 µM.
Regarding `COc1cc(-c2ccnn2-c2ccc(C)c(C)c2)cc(OC)c1OC`, in data set [6], the IC50 was > 64 µM.
On the same count and under the same terms, the result for `COc1cc(-c2nc(N)ncc2-c2ccc([N+](=O)[O-])cc2)cc(OC)c1OC` reads > 64 µM.
On the same count and under the same terms, the result for `COc1cc(-c2ccnn2-c2cccc(N)c2)cc(OC)c1OC` reads > 64 µM.

(Values after ChEMBL document CHEMBL5360544, “Design, synthesis, and biological evaluation of diaryl heterocyclic derivatives targeting tubulin polymerization with potent anticancer activities” (Eur J Med Chem, 2023).)
